In PubChem BioAssay (NCI):
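Method: 48-hour compound exposure of cells in 96-well plates, five concentrations, linear interpolation of endpoints. TGI is the concentration that stops growth completely.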

How the values were obtained:
Assay in all cases: DTP human tumour cell line panel, 48 h
NCI-H23 lung = tested on: NCI-H23 lung
NCI/ADR-RES ovarian = tested on: NCI/ADR-RES ovarian
MDA-N = tested on: MDA-N
HCT-116 colon = tested on: HCT-116 colon
SF-539 CNS = tested on: SF-539 CNS
HCC-2998 colon = tested on: HCC-2998 colon
MDA-MB-231 breast = tested on: MDA-MB-231 breast
NCI-H522 lung = tested on: NCI-H522 lung
MDA-MB-435 = tested on: MDA-MB-435
HCT-15 colon = tested on: HCT-15 colon
NCI-H460 lung = tested on: NCI-H460 lung
MOLT-4 leukemia = tested on: MOLT-4 leukemia
DU-145 prostate = tested on: DU-145 prostate
SK-OV-3 ovarian = tested on: SK-OV-3 ovarian
EKVX NSCLC = tested on: EKVX NSCLC
SF-268 CNS = tested on: SF-268 CNS
SW-620 colon = tested on: SW-620 colon
T-47D breast = tested on: T-47D breast
SK-MEL-28 melanoma = tested on: SK-MEL-28 melanoma
OVCAR-3 ovarian = tested on: OVCAR-3 ovarian

Structure (SMILES)	TGI (NCI-H23 lung)	TGI (NCI/ADR-RES ovarian)	TGI (MDA-N)	TGI (HCT-116 colon)	TGI (SF-539 CNS)	TGI (HCC-2998 colon)	TGI (MDA-MB-231 breast)	TGI (NCI-H522 lung)	TGI (MDA-MB-435)	TGI (HCT-15 colon)	TGI (NCI-H460 lung)	TGI (MOLT-4 leukemia)	TGI (DU-145 prostate)	TGI (SK-OV-3 ovarian)	TGI (EKVX NSCLC)	TGI (SF-268 CNS)	TGI (SW-620 colon)	TGI (T-47D breast)	TGI (SK-MEL-28 melanoma)	TGI (OVCAR-3 ovarian)
C=C(Br)CN(CC(=C)Br)C(C)=O	> 100 µM	> 100 µM	> 100 µM	> 100 µM	> 100 µM	> 100 µM	> 100 µM	> 100 µM	> 100 µM	> 100 µM	> 100 µM	> 100 µM	> 100 µM	> 100 µM	> 100 µM	> 100 µM	> 100 µM	> 100 µM	> 100 µM	> 100 µM
O=C(O)c1cc2c(s1)C(=O)c1sccc1C2=O	4.71 µM	18.5 µM	1.68 µM	4.81 µM	3.85 µM	33.6 µM	38.4 µM	8.58 µM	1.68 µM	11.9 µM	33 µM	28.6 µM	5.85 µM	41.4 µM	30.5 µM	16.4 µM	5.28 µM	17.3 µM	3.45 µM	15.6 µM
O=C(O)C/C(=C\c1ccccc1)C(=O)O	> 100 µM	> 100 µM	> 100 µM	> 100 µM	> 100 µM	> 100 µM	> 100 µM	> 100 µM	> 100 µM	> 100 µM	> 100 µM	> 100 µM	> 100 µM	> 100 µM	> 100 µM	> 100 µM	> 100 µM	> 100 µM	> 100 µM	> 100 µM
CO[C@@H](c1ccccc1)[C@H](O)[C@](O)(c1ccccc1)P(=O)(OC)OC	> 100 µM	> 100 µM	> 100 µM	> 100 µM	> 100 µM	> 100 µM	> 100 µM	> 100 µM	> 100 µM	> 100 µM	> 100 µM	> 100 µM	> 100 µM	> 100 µM	> 100 µM	> 100 µM	> 100 µM	> 100 µM	> 100 µM	> 100 µM
Clc1ncnc2c1nc(C#Cc1ccccc1)n2Cc1ccccc1	42.8 µM	> 100 µM	53.8 µM	> 100 µM	83.8 µM	27 µM	71 µM	36.7 µM	43 µM	36.6 µM	> 100 µM	> 100 µM	29 µM	> 100 µM	29.3 µM	> 100 µM	> 100 µM	> 100 µM	44.2 µM	21.6 µM
N=c1oc2ccc(Cl)cc2cc1C(=O)Nc1ccccc1	> 100 µM	> 100 µM	> 100 µM	> 100 µM	> 100 µM	> 100 µM	> 100 µM	> 100 µM	> 100 µM	> 100 µM	> 100 µM	> 100 µM	> 100 µM	> 70.2 µM	> 100 µM	> 100 µM	> 100 µM	> 44.8 µM	> 100 µM	> 100 µM
Cc1cc(NS(=O)(=O)c2ccc(Nc3c4ccccc4nc4ccc(C(=O)Nc5ccc(S(=O)(=O)N=C(N)N)cc5)cc34)cc2)no1	> 100 µM	> 100 µM	> 100 µM	> 100 µM	> 100 µM	> 100 µM	> 100 µM	> 100 µM	> 100 µM	> 100 µM	> 100 µM	> 100 µM	> 100 µM	> 100 µM	> 100 µM	> 100 µM	> 100 µM	> 100 µM	> 100 µM	> 100 µM
CCCCCCCC(=O)N/N=C/c1ccc(Sc2nccn2C)c([N+](=O)[O-])c1	42.9 µM	48.9 µM	32 µM	28.5 µM	34 µM	26.5 µM	30.1 µM	28.4 µM	28.5 µM	29.3 µM	30.5 µM	62.5 µM	46.7 µM	> 100 µM	42.8 µM	32 µM	32.8 µM	37 µM	27.3 µM	36.4 µM
O=C1CCc2cc3c(cc21)CC1(Cc2ccccc2C1)C3	> 86.5 µM	> 60.1 µM	4.76 µM	> 46.3 µM	56.2 µM	> 70.5 µM	> 100 µM	> 79.9 µM	5.92 µM	> 100 µM	> 100 µM	12.7 µM	> 100 µM	> 100 µM	> 100 µM	> 100 µM	> 100 µM	> 100 µM	> 100 µM	> 80.8 µM
Cc1ccc(NC(=O)CC(=O)n2nc(C)c(N=Nc3ccc(S(=O)(=O)CCOS(=O)(=O)O)cc3)c2C)cc1	> 100 µM	> 100 µM	> 100 µM	> 100 µM	> 100 µM	> 100 µM	> 100 µM	> 100 µM	> 100 µM	–	> 100 µM	> 100 µM	> 100 µM	> 100 µM	> 100 µM	> 100 µM	> 100 µM	> 100 µM	> 100 µM	> 100 µM
NC1=Nc2ccccc2Sc2nnc(-c3ccc(Cl)cc3)n21	> 100 µM	> 100 µM	> 100 µM	> 100 µM	> 100 µM	> 100 µM	73.1 µM	68.3 µM	> 100 µM	> 100 µM	> 100 µM	72.2 µM	> 100 µM	> 100 µM	> 100 µM	95.3 µM	> 100 µM	> 100 µM	> 100 µM	> 100 µM
CC1=CCS(=O)(=O)C1C(O)C1=C(C)CCCC1(C)C (configuration not stated)	> 100 µM	> 100 µM	> 100 µM	> 100 µM	> 100 µM	> 100 µM	> 100 µM	> 100 µM	> 100 µM	> 100 µM	–	> 100 µM	> 100 µM	> 100 µM	> 100 µM	–	> 100 µM	> 100 µM	> 100 µM	> 100 µM
O=C1C(N=Nc2ccc(-c3nc4ccccc4o3)cc2)NC(=S)N1c1ccccc1 (configuration not stated)	> 100 µM	> 100 µM	> 100 µM	> 100 µM	> 100 µM	> 100 µM	> 100 µM	> 100 µM	> 100 µM	> 100 µM	> 100 µM	> 100 µM	> 100 µM	> 100 µM	> 100 µM	> 100 µM	> 100 µM	> 100 µM	> 100 µM	64.3 µM
O=C(CC(C(=O)c1ccsc1)c1ccccc1)c1cccs1 (configuration not stated)	77.3 µM	67.9 µM	> 100 µM	> 100 µM	> 100 µM	> 100 µM	> 100 µM	> 100 µM	> 100 µM	> 100 µM	> 100 µM	> 100 µM	> 100 µM	> 100 µM	> 100 µM	> 100 µM	> 100 µM	45.3 µM	> 100 µM	> 100 µM
CCOC(=O)N1CCN(C(=O)Nc2cccc3ccccc23)CC1	> 10 µM	> 10 µM	> 10 µM	> 10 µM	> 10 µM	> 10 µM	> 10 µM	> 10 µM	> 10 µM	> 10 µM	> 10 µM	> 10 µM	> 10 µM	> 10 µM	> 10 µM	> 10 µM	> 10 µM	> 10 µM	> 10 µM	> 10 µM
CC1CC[C@@]2(OC1)OC1C[C@H]3[C@@H]4CC[C@H]5CC(OC6OC(CO)C(OC7OC(CO)C(O)C(O)C7O)C(O)C6O)CCC5(C)[C@H]4CCC3(C)C1[C@@H]2C (some centres not stated)	16.2 µM	19.9 µM	16.3 µM	15 µM	16.3 µM	12.9 µM	17.2 µM	13.8 µM	18 µM	28.9 µM	21.1 µM	25.4 µM	18 µM	18.7 µM	12.2 µM	18.1 µM	17.8 µM	20.4 µM	16.6 µM	14.6 µM
c1ccc2c(c1)CCN2CCc1c[nH]c2ccccc12	> 10 µM	> 10 µM	> 10 µM	> 10 µM	> 10 µM	> 10 µM	> 10 µM	> 10 µM	> 10 µM	> 10 µM	> 10 µM	> 10 µM	> 10 µM	> 10 µM	> 10 µM	> 10 µM	> 10 µM	> 10 µM	> 10 µM	> 10 µM
CN(C)c1ccc(/C=C/c2cc[n+](C)c3ccccc23)cc1	12.5 µM	> 100 µM	9.35 µM	8.62 µM	18.7 µM	17 µM	20.3 µM	11.5 µM	10.2 µM	> 100 µM	14.3 µM	> 38.3 µM	52.2 µM	27 µM	> 100 µM	21.5 µM	12.9 µM	16.6 µM	21.9 µM	13.5 µM
N#Cc1ccc(OCc2ccc3nc(-c4ccccc4)c(Cl)nc3c2)cc1	> 100 µM	> 100 µM	> 100 µM	> 100 µM	> 100 µM	> 100 µM	> 100 µM	> 100 µM	> 100 µM	> 100 µM	> 100 µM	> 100 µM	> 100 µM	–	> 100 µM	> 100 µM	> 100 µM	> 100 µM	> 100 µM	> 100 µM
CC(=O)Nc1ccc(N2C(=O)/C(=C\c3cccc(Oc4ccccc4)c3)SC2c2ccccc2)cc1 (configuration not stated)	> 100 µM	> 100 µM	42.3 µM	39.6 µM	33.4 µM	> 100 µM	> 100 µM	58.4 µM	> 100 µM	> 100 µM	> 100 µM	68.5 µM	> 100 µM	> 100 µM	> 100 µM	> 100 µM	> 100 µM	> 100 µM	76.1 µM	> 100 µM
Cc1nnc2sc(-c3ccc(-c4ccccc4Cl)o3)nn12	74.2 µM	52.8 µM	40.6 µM	44.2 µM	45.9 µM	64.4 µM	> 100 µM	78.4 µM	44 µM	86 µM	> 100 µM	51.1 µM	> 100 µM	> 100 µM	> 100 µM	> 100 µM	> 100 µM	91.6 µM	–	84.7 µM
Cc1ccc(C(=O)C#Cc2cn(C3CC(O)C(CO)O3)c(=O)[nH]c2=O)cc1 (configuration not stated)	> 100 µM	> 100 µM	> 100 µM	> 100 µM	> 100 µM	> 100 µM	> 100 µM	23.9 µM	> 100 µM	> 100 µM	> 100 µM	–	> 100 µM	> 100 µM	> 100 µM	> 100 µM	89.2 µM	45 µM	> 100 µM	60 µM
O=[N+]([O-])/C(C(Cl)=C(Cl)Cl)=C1/OCCS1	72.4 µM	33.6 µM	> 100 µM	35.2 µM	42.9 µM	> 100 µM	40.2 µM	79.7 µM	47.3 µM	61 µM	71.4 µM	41.2 µM	> 100 µM	> 100 µM	> 100 µM	71.1 µM	–	91 µM	96.5 µM	36.8 µM
O=C1CC(CC(OCc2ccccc2)C(COCc2ccccc2)OCc2ccccc2)CC(=O)N1 (configuration not stated)	> 100 µM	97.9 µM	82.4 µM	> 100 µM	> 100 µM	> 100 µM	> 100 µM	61.7 µM	85 µM	> 100 µM	> 100 µM	74.8 µM	> 100 µM	–	92.8 µM	> 100 µM	> 100 µM	94.5 µM	> 100 µM	> 100 µM
